The results in this text go back to patent EP0550016A1, “Novel quinolone carboxylic acid derivatives and processes for preparing same” (KOREA RESEARCH INSTITUTE OF CHEMICAL TECHNOLOGY, priority 1991, dated 1993).

Holding throughout (test): In vitro anti-bacterial activity test (MIC, two-fold dilution method) against the standard strains
Assay type in all cases: cell-based

Test [1] concerns Staphylococcus aureus SG 511. The following applies: SG511; Table 1 strain 4: Staphylococcus aureus SG 511.
For test [2], the system named is Streptococcus pyogenes 77 A. The following applies: Table 1 strain 2: Streptococcus pyogenes 77 A; read-out: MIC.
A further test has as its system Escherichia coli DC 2. To be noted: DC2.
The subject of test [3] is Klebsiella aerogenes 1082 E. To be noted: Table 1 strain 17: Klebsiella aerogenes 1082 E.
The test system of test [4] is Staphylococcus aureus 285. The following applies: Table 1 strain 5: Staphylococcus aureus 285; read-out: MIC.
The subject of test [5] is Pseudomonas aeruginosa 1771 M. The following applies: Table 1 strain 15: Pseudomonas aeruginosa 1771 M.
A further test deals with Escherichia coli OTEM. The following applies: Table 1 strain 10: Escherichia coli OTEM.
The test system of test [6] is Staphylococcus aureus 503. To be noted: Table 1 strain 6: Staphylococcus aureus 503; read-out: MIC.
Test [7] deals with Escherichia coli DC 0. The following applies: DC0; Table 1 strain 7: Escherichia coli DC 0.
The test system of test [8] is Pseudomonas aeruginosa 1771. To be noted: Table 1 strain 14: Pseudomonas aeruginosa 1771.
The next test relates to Salmonella typhimurium. To be noted: Salmonella enterica; Table 1 strain 16: Salmonella typhimurium.
The subject of test [9] is Streptococcus faecium MD 8b. To be noted: Enterococcus faecium, MD8B; Table 1 strain 3: Streptococcus faecium MD 8b; read-out: MIC.
The test system of test [10] is Klebsiella aerogenes 1522 E. The following applies: Table 1 strain 18: Klebsiella aerogenes 1522 E.
The test system of test [11] is Enterobacter cloacae 1321 E. The following applies: Table 1 strain 20: Enterobacter cloacae 1321 E.
The test system of test [12] is Streptococcus pyogenes 308 A. To be noted: Table 1 strain 1: Streptococcus pyogenes 308 A.
For test [13], the system named is Enterobacter cloacae P 99. To be noted: P99; Table 1 strain 19: Enterobacter cloacae P 99.
In test [14] the test system is Pseudomonas aeruginosa 9027. The following applies: Table 1 strain 12: Pseudomonas aeruginosa 9027.
The test system of test [15] is Escherichia coli DC 0. To be noted: DC0; Table 1 strain 8: Escherichia coli DC 0.
A further test deals with Escherichia coli 1507 E. The following applies: Table 1 strain 11: Escherichia coli 1507 E.
The subject of test [16] is Pseudomonas aeruginosa 1592 E. To be noted: Table 1 strain 13: Pseudomonas aeruginosa 1592 E.
[17] abbreviates: Table 1 strain 9: Escherichia coli DC 2, read-out: MIC.

In brackets after ≈: the same amount, converted by molar mass. Where two headings read alike, the source gives them in different places.

As a reminder, the MIC is the lowest concentration that inhibits growth of the organism. As for `COc1c(N2CCC3(CC3N)C2)c(F)cc2c(=O)c(C(=O)O)cn(C3CC3)c12` (stereo not drawn) [Example 19, 7-(1-amino-5-azaspiro[2,4]heptane-5-yl)-1-cyclopropyl-8-methoxy-6-fluoro-1,4-dihydro-4-oxoquinoline-3-carboxylic acid], the MIC in [1] turned out to be 0.025 µg/mL (≈ 0.0645 µM); in test [2] it was 0.098 µg/mL (≈ 0.253 µM); with Escherichia coli DC 2 (setting [17]) it was 0.049 µg/mL (≈ 0.126 µM); in [3] it was 0.007 µg/mL (≈ 0.0181 µM); in test [4], 0.049 µg/mL (≈ 0.126 µM); in [5], 0.391 µg/mL (≈ 1.01 µM). Further, the MIC stood at 0.049 µg/mL (≈ 0.126 µM) against Escherichia coli OTEM; 0.025 µg/mL (≈ 0.0645 µM) in [6]; 0.025 µg/mL (≈ 0.0645 µM) in the test with Escherichia coli DC 0 [7]; 1.56 µg/mL (≈ 4.03 µM) in [8]; 0.049 µg/mL (≈ 0.126 µM) against Salmonella typhimurium; 0.098 µg/mL (≈ 0.253 µM) in [9]. Also, the MIC in test [10] was determined as 0.098 µg/mL (≈ 0.253 µM); in [11] it was 0.025 µg/mL (≈ 0.0645 µM); in test [12] it was 0.195 µg/mL (≈ 0.503 µM); in test [13], 0.049 µg/mL (≈ 0.126 µM); in test [14], 1.56 µg/mL (≈ 4.03 µM); in the test on Escherichia coli DC 0 [15], 0.391 µg/mL (≈ 1.01 µM). For the same molecule, the minimum inhibitory concentration (MIC) is 0.049 µg/mL (≈ 0.126 µM) against Escherichia coli 1507 E and 1.56 µg/mL (≈ 4.03 µM) in test [16].

As for `CNC1CC12CCN(c1c(F)c(N)c3c(=O)c(C(=O)O)cn(C4CC4)c3c1F)C2` (stereo not drawn) [Example 12, 7-(1-methylamino-5-azaspiro[2,4]heptane-5-yl)-1-cyclopropyl-5-amino-6,8-difluoro-1,4-dihydro-4-oxoquinoline-3-carboxylic acid], the MIC in [1] was 0.025 µg/mL (≈ 0.0618 µM); in test [2], 0.195 µg/mL (≈ 0.482 µM); in the test with Escherichia coli DC 2 (setting [17]), 0.195 µg/mL (≈ 0.482 µM); in test [3] it was below 0.002 µg/mL; in [4] it was 0.025 µg/mL (≈ 0.0618 µM); in [5], 0.391 µg/mL (≈ 0.967 µM). Besides, the MIC with Escherichia coli OTEM came to 0.049 µg/mL (≈ 0.121 µM); in [6] it was 0.025 µg/mL (≈ 0.0618 µM); in the test on Escherichia coli DC 0 [7] it was 0.025 µg/mL (≈ 0.0618 µM); in test [8] it was 1.56 µg/mL (≈ 3.86 µM); with Salmonella typhimurium it was 0.049 µg/mL (≈ 0.121 µM); in test [9] it was 0.195 µg/mL (≈ 0.482 µM). The MIC turned out to be 0.098 µg/mL (≈ 0.242 µM) in test [10]; 0.025 µg/mL (≈ 0.0618 µM) in test [11]; 0.195 µg/mL (≈ 0.482 µM) in [12]; 0.049 µg/mL (≈ 0.121 µM) in test [13]; 3.12 µg/mL (≈ 7.73 µM) in test [14]; 0.391 µg/mL (≈ 0.967 µM) in the test with Escherichia coli DC 0 [15]. Further, the MIC with Escherichia coli 1507 E was 0.049 µg/mL (≈ 0.121 µM); in test [16], 3.12 µg/mL (≈ 7.73 µM).

Take `CC(O)C(=O)O.NC1CC12CCN(c1c(F)cc3c(=O)c(C(=O)O)cn(C4CC4)c3c1Cl)C2` (stereo not drawn) [Example 4, 7-(1-amino-5-azaspiro[2,4]heptane-5-yl)-8-chloro-1-cyclopropyl-6-fluoro-1,4-dihydro-4-oxoquinoline-3-carboxylic acid lactate]: the MIC in test [1] was 0.025 µg/mL; in test [2] it was 0.049 µg/mL; against Escherichia coli DC 2 (Escherichia coli), 0.049 µg/mL; in test [3], below 0.002 µg/mL; in test [4], 0.025 µg/mL; in [5] it was 0.195 µg/mL. Besides, the MIC against Escherichia coli OTEM stood at 0.025 µg/mL; in test [6], 0.013 µg/mL; with Escherichia coli DC 0 [7], 0.007 µg/mL; in [8], 0.781 µg/mL; against Salmonella typhimurium it was 0.025 µg/mL; in test [9], 0.098 µg/mL. The MIC turned out to be 0.025 µg/mL in test [10]; 0.007 µg/mL in [11]; 0.098 µg/mL in test [12]; 0.025 µg/mL in [13]; 0.781 µg/mL in [14]; 0.098 µg/mL against Escherichia coli DC 0 [15]. In addition, the MIC against Escherichia coli 1507 E was determined as 0.025 µg/mL; in [16] it was 0.781 µg/mL.
